Reference: PubChem BioAssay AID248 (DTP/NCI, 2004)
Values joined by “and” are separate entries in the source; they are usually repeats but may differ in a detail not shown here. Equal values may be shown once. Inconclusive results and toxic doses are left out. Rule as the data show it: active = T/C of 150% or more; inactive = T/C below 125%.

System: L1210 leukemia ip in BDF1 mice, survival T/C
Test: NCI In Vivo Anticancer Drug Screen. Data for tumor model L1210 Leukemia (intraperitoneal) in B6D2F1 (BDF1) mice
Conditions: higher = longer survival
Method in brief: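 In this screen, tumor-bearing mice given compound are compared to those given vehicle, and their survival values are reported as a treated-to-control quotient.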

Measured: T/C

C[n+]1c2ccccc2nc2c(N)cc(N)cc21
inactive: endpoint: mean survival time, dose: 1.0 mg/kg/injection, schedule: Q03HX024 (ip), vehicle: saline 101 % of control | endpoint: mean survival time, dose: 1.25 mg/kg/injection, schedule: Q#A X030 (ip), vehicle: water 104 % of control | endpoint: mean survival time, dose: 2.0 mg/kg/injection, schedule: Q01DX005 (iv), vehicle: saline 99 % of control | endpoint: mean survival time, dose: 2.0 mg/kg/injection, schedule: Q01DX009 (ip), vehicle: saline 96 % of control | endpoint: mean survival time, dose: 2.0 mg/kg/injection, schedule: Q03HX016 (ip), vehicle: saline 101 % of control | endpoint: mean survival time, dose: 2.0 mg/kg/injection, schedule: Q03HX024 (ip), vehicle: saline 107 % of control | endpoint: mean survival time, dose: 2.5 mg/kg/injection, schedule: Q01DX010 (oral), vehicle: water 105 % of control | endpoint: mean survival time, dose: 2.5 mg/kg/injection, schedule: Q#A X030 (ip), vehicle: water 107 % of control | endpoint: mean survival time, dose: 3.0 mg/kg/injection, schedule: Q01DX Z (ip), vehicle: saline 109 % of control | endpoint: mean survival time, dose: 3.12 mg/kg/injection, schedule: Q01DX001 (ip), vehicle: water 109 % of control and 110 % of control | endpoint: mean survival time, dose: 4.0 mg/kg/injection, schedule: Q01DX001 (iv), vehicle: saline 94 % of control | endpoint: mean survival time, dose: 4.0 mg/kg/injection, schedule: Q01DX005 (iv), vehicle: saline 96 % of control | endpoint: mean survival time, dose: 4.0 mg/kg/injection, schedule: Q01DX007 (iv), vehicle: saline 113 % of control | endpoint: mean survival time, dose: 4.0 mg/kg/injection, schedule: Q01DX009 (ip), vehicle: saline 104 % of control | endpoint: mean survival time, dose: 4.0 mg/kg/injection, schedule: Q01DX Z (sc), vehicle: steriod suspending solution 103 % of control | endpoint: mean survival time, dose: 4.0 mg/kg/injection, schedule: Q03HX008 (ip), vehicle: saline 107 % of control | endpoint: mean survival time, dose: 4.0 mg/kg/injection, schedule: Q03HX016 (ip), vehicle: saline 96 % of control | endpoint: mean survival time, dose: 4.0 mg/kg/injection, schedule: Q03HX024 (ip), vehicle: saline 100 % of control | endpoint: mean survival time, dose: 4.4 mg/kg/injection, schedule: Q#A X Z (ip), vehicle: carboxymethylcellulose (CMC) 110 % of control | endpoint: mean survival time, dose: 5.0 mg/kg/injection, schedule: Q01DX001 (ip), vehicle: saline 103 % of control | endpoint: mean survival time, dose: 5.0 mg/kg/injection, schedule: Q01DX009 (ip), vehicle: saline 111 % of control | endpoint: mean survival time, dose: 5.0 mg/kg/injection, schedule: Q01DX Z (im), vehicle: saline 104 % of control | endpoint: mean survival time, dose: 5.0 mg/kg/injection, schedule: Q01DX Z (ip), vehicle: saline 112 % of control | endpoint: mean survival time, dose: 6.25 mg/kg/injection, schedule: Q01DX001 (ip), vehicle: water 110 % of control | endpoint: mean survival time, dose: 6.65 mg/kg/injection, schedule: Q#A X Z (ip), vehicle: carboxymethylcellulose (CMC) 104 % of control | endpoint: mean survival time, dose: 8.0 mg/kg/injection, schedule: Q01DX001 (iv), vehicle: saline 96 % of control | endpoint: mean survival time, dose: 8.0 mg/kg/injection, schedule: Q01DX005 (iv), vehicle: saline 93 % of control | endpoint: mean survival time, dose: 8.0 mg/kg/injection, schedule: Q01DX007 (iv), vehicle: saline 104 % of control | endpoint: mean survival time, dose: 8.0 mg/kg/injection, schedule: Q01DX009 (ip), vehicle: saline 101 % of control | endpoint: mean survival time, dose: 8.0 mg/kg/injection, schedule: Q01DX Z (sc), vehicle: steriod suspending solution 109 % of control | endpoint: mean survival time, dose: 8.0 mg/kg/injection, schedule: Q03HX008 (ip), vehicle: saline 110 % of control | endpoint: mean survival time, dose: 8.0 mg/kg/injection, schedule: Q03HX016 (ip), vehicle: saline 101 % of control | endpoint: mean survival time, dose: 8.0 mg/kg/injection, schedule: Q03HX024 (ip), vehicle: saline 112 % of control | endpoint: mean survival time, dose: 8.0 mg/kg/injection, schedule: Q04DX003 (ip), vehicle: saline 101 % of control | endpoint: mean survival time, dose: 10.0 mg/kg/injection, schedule: Q01DX001 (ip), vehicle: saline 103 % of control | endpoint: mean survival time, dose: 10.0 mg/kg/injection, schedule: Q01DX010 (oral), vehicle: water 113 % of control | endpoint: mean survival time, dose: 10.0 mg/kg/injection, schedule: Q01DX Z (im), vehicle: saline 106 % of control | endpoint: mean survival time, dose: 12.5 mg/kg/injection, schedule: Q01DX001 (ip), vehicle: water 112 % of control | endpoint: mean survival time, dose: 16.0 mg/kg/injection, schedule: Q01DX001 (iv), vehicle: saline 96 % of control | endpoint: mean survival time, dose: 16.0 mg/kg/injection, schedule: Q01DX005 (iv), vehicle: saline 102 % of control | endpoint: mean survival time, dose: 16.0 mg/kg/injection, schedule: Q01DX009 (sc), vehicle: saline 104 % of control | endpoint: mean survival time, dose: 16.0 mg/kg/injection, schedule: Q01DX Z (sc), vehicle: steriod suspending solution 104 % of control and 105 % of control | endpoint: mean survival time, dose: 16.0 mg/kg/injection, schedule: Q03HX008 (ip), vehicle: saline 107 % of control | endpoint: mean survival time, dose: 16.0 mg/kg/injection, schedule: Q03HX016 (ip), vehicle: saline 104 % of control and 113 % of control | endpoint: mean survival time, dose: 16.0 mg/kg/injection, schedule: Q04DX003 (ip), vehicle: saline 103 % of control | endpoint: mean survival time, dose: 16.0 mg/kg/injection, schedule: Q08DX002 (ip), vehicle: saline 102 % of control | endpoint: mean survival time, dose: 20.0 mg/kg/injection, schedule: Q01DX001 (ip), vehicle: saline 101 % of control | endpoint: mean survival time, dose: 20.0 mg/kg/injection, schedule: Q01DX009 (ip), vehicle: saline 110 % of control | endpoint: mean survival time, dose: 20.0 mg/kg/injection, schedule: Q01DX010 (oral), vehicle: water 107 % of control and 111 % of control | endpoint: mean survival time, dose: 20.0 mg/kg/injection, schedule: Q01DX Z (im), vehicle: saline 108 % of control | endpoint: mean survival time, dose: 20.0 mg/kg/injection, schedule: Q01DX Z (ip), vehicle: saline 114 % of control | endpoint: mean survival time, dose: 20.0 mg/kg/injection, schedule: Q01DX Z (oral), vehicle: saline 106 % of control | endpoint: mean survival time, dose: 25.0 mg/kg/injection, schedule: Q01DX001 (ip), vehicle: other 112 % of control | endpoint: mean survival time, dose: 32.0 mg/kg/injection, schedule: Q01DX001 (ip), vehicle: saline 108 % of control | endpoint: mean survival time, dose: 32.0 mg/kg/injection, schedule: Q01DX001 (iv), vehicle: saline 96 % of control | endpoint: mean survival time, dose: 32.0 mg/kg/injection, schedule: Q01DX009 (oral), vehicle: saline 102 % of control | endpoint: mean survival time, dose: 32.0 mg/kg/injection, schedule: Q01DX009 (sc), vehicle: saline 106 % of control | endpoint: mean survival time, dose: 32.0 mg/kg/injection, schedule: Q01DX Z (sc), vehicle: steriod suspending solution 100 % of control | endpoint: mean survival time, dose: 32.0 mg/kg/injection, schedule: Q03HX016 (ip), vehicle: saline 110 % of control | endpoint: mean survival time, dose: 32.0 mg/kg/injection, schedule: Q04DX003 (ip), vehicle: saline 107 % of control | endpoint: mean survival time, dose: 32.0 mg/kg/injection, schedule: Q08DX002 (ip), vehicle: saline 98 % of control | endpoint: mean survival time, dose: 37.0 mg/kg/injection, schedule: Q01DX001 (ip), vehicle: other 107 % of control | endpoint: mean survival time, dose: 40.0 mg/kg/injection, schedule: Q01DX001 (ip), vehicle: saline 110 % of control | endpoint: mean survival time, dose: 40.0 mg/kg/injection, schedule: Q01DX009 (ip), vehicle: saline 97 % of control | endpoint: mean survival time, dose: 40.0 mg/kg/injection, schedule: Q01DX010 (oral), vehicle: water 104 % of control | endpoint: mean survival time, dose: 40.0 mg/kg/injection, schedule: Q01DX Z (ip), vehicle: saline 109 % of control | endpoint: mean survival time, dose: 50.0 mg/kg/injection, schedule: Q01DX001 (ip), vehicle: water 110 % of control | endpoint: mean survival time, dose: 56.0 mg/kg/injection, schedule: Q01DX001 (ip), vehicle: other 111 % of control | endpoint: mean survival time, dose: 61.6 mg/kg/injection, schedule: Q07DX Z (ip), vehicle: carboxymethylcellulose (CMC) 112 % of control | endpoint: mean survival time, dose: 64.0 mg/kg/injection, schedule: Q01DX001 (ip), vehicle: saline 114 % of control | endpoint: mean survival time, dose: 64.0 mg/kg/injection, schedule: Q01DX001 (oral), vehicle: saline 106 % of control | endpoint: mean survival time, dose: 64.0 mg/kg/injection, schedule: Q01DX001 (sc), vehicle: saline 98 % of control | endpoint: mean survival time, dose: 64.0 mg/kg/injection, schedule: Q01DX009 (oral), vehicle: saline 98 % of control | endpoint: mean survival time, dose: 64.0 mg/kg/injection, schedule: Q01DX Z (sc), vehicle: steriod suspending solution 101 % of control | endpoint: mean survival time, dose: 64.0 mg/kg/injection, schedule: Q08DX002 (ip), vehicle: saline 104 % of control | endpoint: mean survival time, dose: 80.0 mg/kg/injection, schedule: Q01DX001 (ip), vehicle: saline 103 % of control | endpoint: mean survival time, dose: 80.0 mg/kg/injection, schedule: Q01DX010 (oral), vehicle: water 110 % of control | endpoint: mean survival time, dose: 93.1 mg/kg/injection, schedule: Q07DX Z (ip), vehicle: carboxymethylcellulose (CMC) 110 % of control | endpoint: mean survival time, dose: 128.0 mg/kg/injection, schedule: Q01DX001 (oral), vehicle: saline 98 % of control | endpoint: mean survival time, dose: 128.0 mg/kg/injection, schedule: Q01DX001 (sc), vehicle: saline 98 % of control | endpoint: mean survival time, dose: 128.0 mg/kg/injection, schedule: Q08DX002 (ip), vehicle: saline 104 % of control | endpoint: mean survival time, dose: 140.0 mg/kg/injection, schedule: Q07DX Z (ip), vehicle: carboxymethylcellulose (CMC) 112 % of control | endpoint: mean survival time, dose: 160.0 mg/kg/injection, schedule: Q01DX010 (oral), vehicle: water 110 % of control | endpoint: mean survival time, dose: 256.0 mg/kg/injection, schedule: Q01DX001 (oral), vehicle: saline 98 % of control | endpoint: mean survival time, dose: 256.0 mg/kg/injection, schedule: Q01DX001 (sc), vehicle: saline 105 % of control | endpoint: mean survival time, dose: 256.0 mg/kg/injection, schedule: Q01DX009 (oral), vehicle: saline 104 % of control and 114 % of control | endpoint: mean survival time, dose: 288.0 mg/kg/injection, schedule: Q01DX Z (oral), vehicle: other 103 % of control | endpoint: mean survival time, dose: 432.0 mg/kg/injection, schedule: Q01DX Z (oral), vehicle: other 95 % of control | endpoint: mean survival time, dose: 512.0 mg/kg/injection, schedule: Q01DX001 (oral), vehicle: saline 106 % of control | endpoint: mean survival time, dose: 512.0 mg/kg/injection, schedule: Q01DX009 (oral), vehicle: saline 112 % of control | endpoint: mean survival time, dose: 1024.0 mg/kg/injection, schedule: Q01DX001 (oral), vehicle: saline 109 % of control | endpoint: median survival time, dose: 5.0 mg/kg/injection, schedule: Q01DX009 (ip), vehicle: saline 110 % of control and 113 % of control
